1 compound from publication PMC5909423, “Antibiotic resistance ABCF proteins reset the peptidyl transferase centre of the ribosome to counter translational arrest” (Nucleic Acids Research, 2018) can be followed below.

In this assay the target is T1, LsaA (Enterococcus faecalis, UniProt Q7WT47).
T1 construct: gene lsa
Particulars: 1 uM LsaA, 1 mM ATP, 1 uM lincomycin; indirect read-out.

T1 sequence (Q7WT47 entry or part of it): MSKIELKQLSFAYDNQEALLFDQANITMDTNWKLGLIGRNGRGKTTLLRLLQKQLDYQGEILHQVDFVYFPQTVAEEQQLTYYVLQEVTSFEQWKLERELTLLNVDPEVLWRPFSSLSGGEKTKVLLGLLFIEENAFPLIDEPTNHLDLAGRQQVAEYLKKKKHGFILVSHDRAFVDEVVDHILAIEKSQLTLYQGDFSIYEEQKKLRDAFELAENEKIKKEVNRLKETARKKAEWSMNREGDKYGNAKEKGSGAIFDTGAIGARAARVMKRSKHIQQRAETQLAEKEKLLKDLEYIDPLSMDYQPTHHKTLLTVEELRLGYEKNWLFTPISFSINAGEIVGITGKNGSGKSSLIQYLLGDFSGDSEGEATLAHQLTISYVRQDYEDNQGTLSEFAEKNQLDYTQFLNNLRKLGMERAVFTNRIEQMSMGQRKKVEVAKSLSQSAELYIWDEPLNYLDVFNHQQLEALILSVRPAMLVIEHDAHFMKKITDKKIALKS

For the compound `Nc1ncnc2c1ncn2[C@@H]1O[C@H](COP(=O)(O)OP(=O)(O)OP(=O)(O)O)[C@@H](O)[C@H]1O` [ATP], the “ATP-dependent rescue of puromycin reaction of lincomycin-inhibited E. faecalis 7” value was “in the absence of ATP LsaA has no effect”.
